Source: paper PMC8980233, “Differentiating the Neuropharmacological Properties of Nicotinic Acetylcholine Receptor-Activating Alkaloids” (Frontiers in Pharmacology, 2022)

Tests used:
[1] = tested on: norepinephrine release from hippocampal synaptosomes; assay: In vitro [3H]norepinephrine release from crude hippocampal synaptosomes; format: biochemical, rat
Procedure: In vitro neurotransmitter assays using crude synaptosome preparations were conducted by Gifford Biosciences Limited (Birmingham, UK) based on the previously described protocols ([Clarke and Reuben, 1996]; [Gifford et al., 2000]). In brief, male Sprague Dawley rats (200–225 g) were terminated by cervical dislocation followed by decapitation. The striatums or hippocampi were dissected and homogenized in ice-cold 0.32 M sucrose using a Dounce homogenizer. The homogenates were centrifuged at 100 x g for 5 min to pellet cell debris. The supernatants were collected and centrifuged at 17,000 x g for 10 min at 4°C to pellet crude synaptosomes. The pellets were resuspended in 5 ml Krebs buffer, pH 7.4 (in mM (pH 7.4): 120 NaCl, 3.3 KCl, 1.2 MgSO4, 1.3 CaCl2, 1.2 K2HPO4, 25 HEPES, 11 glucose, 0.01 ascorbic acid, 0.025 pargyline, and 0.1% BSA containing 2 μCi/ml [^3H]norepinephrine for hippocampal synaptosomes or 1 μCi/ml [^3H]dopamine for striatal synaptosomes and incubated for 15 min at 35°C with gentle shaking.
The [^3H]norepinephrine- or [^3H]dopamine-treated crude synaptosomes were loaded onto closed filter chambers containing Whatman® Grade GF/C Glass Microfiber filters (Sigma-Aldrich, Merck KGaA, Darmstadt, Germany) and placed in a superfusion system. Preoxygenated Krebs buffer was perfused through the chambers at a rate of 1 ml/min at 37 °C using an 8-channel peristaltic pump. To ensure an even flow over the synaptosomal bed, trapped air bubbles were removed from the filters prior to collection of the fractions. After a superfusion period of 40 min, three basal fractions (1.5 ml/fraction) were collected first, followed by three fractions (1.5 ml/fraction) containing the test compound. Two additional fractions were collected in the presence of 30 mM KCl to depolarize the synaptosomes. A 0.4-ml aliquot of each fraction was then transferred to a counting plate, and a scintillation cocktail was added to measure the radioactivity using a Wallac® TriLux 1450 MicroBeta counter (PerkinElmer Life Sciences, Zaventem, Belgium). Once all fractions were collected, the filters holding the crude synaptosome samples were removed and dried overnight at room temperature. On the following day, the scintillation cocktail was added and the filters were counted to determine residual radioactivity.
Compound-evoked release of neurotransmitters was calculated by subtracting the counts per minute (CPM) in the two basal fractions collected immediately prior to compound addition from those in the two fractions collected immediately following compound addition. The compound-evoked release was then expressed as a percentage of the basal release from that chamber. Potassium-evoked release was calculated by subtracting the CPM in the fraction immediately prior to KCl addition from the CPM in the […] immediately following potassium addition. Stimulated release was calculated as the percentage of basal release for that chamber. The increase in stimulated release above the baseline (no compound) release for that experimental run was determined, and the latter values were plotted on the graphs. Dose–response curves were determined using non-linear curve fitting in Prism (GraphPad Software, Inc, San Diego, CA, United States). All experiments were repeated at least three times.

[2] = 0.5 mg/kg; ref Petersen et al. (1984); cited from earlier work
[3] = target: α3β4 nAChR (Homo sapiens, UniProt P30926+P32297); assay: Radioligand displacement binding assay
Procedure: All binding and functional assays for molecular target characterization were conducted by Eurofins Cerep SA (Celle-Lévescault, France) and Eurofins Panlabs Discovery Services Taiwan, Ltd. (New Taipei City, Taiwan) using their standard in vitro binding and functional assays (Supplementary Material S2). […] Negative values were considered to be an artifact arising from, for example, compounds interfering with the assay readout.
The radioligand displacement binding assays employed the gold standard filtration method using membrane preparations from stable cell lines (HEK-293 or CHO cells) expressing human or rodent target proteins to determine the interaction of the compounds with specific receptors, channels, and transporters. For this purpose, the competitive binding of test compounds against a [^125I]- [^3H]-, or [^35S]-labelled agonist and/or antagonist was determined. The specific list of radiolabeled ligands and experimental conditions are summarized in Supplementary Material S2.

[4] = target: α7 nAChR (Homo sapiens, UniProt P36544); assay: Radioligand displacement binding assay
Procedure: (§1) Assay Source Ligand Conc. Kd Non Specific Incubation Detection Bibl.
(§2) N neuronal α7 (h) SH-SY5Y cells [125I]α-bungarotoxin 0.05 nM 0.34 nM α-bungarotoxin 120 min Scintillation 347
(§3) (antagonist radioligand) (human (1 µM) 37°C counting

[5] = target: α4β2 nAChR (Homo sapiens, UniProt P17787+P43681); assay: Radioligand displacement binding assay
Sequence of α4β2 nAChR (P43681 29-627 limits assumed): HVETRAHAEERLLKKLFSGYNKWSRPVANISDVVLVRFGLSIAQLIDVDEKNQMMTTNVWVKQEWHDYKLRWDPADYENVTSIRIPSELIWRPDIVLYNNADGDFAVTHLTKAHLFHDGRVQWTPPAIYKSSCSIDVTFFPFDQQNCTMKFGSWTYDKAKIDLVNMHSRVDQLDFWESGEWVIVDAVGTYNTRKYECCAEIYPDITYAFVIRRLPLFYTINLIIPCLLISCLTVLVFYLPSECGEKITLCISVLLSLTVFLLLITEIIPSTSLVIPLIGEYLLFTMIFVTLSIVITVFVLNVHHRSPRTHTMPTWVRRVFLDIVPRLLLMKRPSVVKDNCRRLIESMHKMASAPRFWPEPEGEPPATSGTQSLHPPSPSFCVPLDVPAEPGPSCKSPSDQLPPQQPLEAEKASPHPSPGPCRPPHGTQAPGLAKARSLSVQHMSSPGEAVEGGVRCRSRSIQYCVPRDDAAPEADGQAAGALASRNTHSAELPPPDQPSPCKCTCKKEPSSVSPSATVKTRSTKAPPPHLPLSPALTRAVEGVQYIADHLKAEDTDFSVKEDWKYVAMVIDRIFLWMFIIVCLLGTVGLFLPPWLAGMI
Sequence of α4β2 nAChR (P17787 26-502): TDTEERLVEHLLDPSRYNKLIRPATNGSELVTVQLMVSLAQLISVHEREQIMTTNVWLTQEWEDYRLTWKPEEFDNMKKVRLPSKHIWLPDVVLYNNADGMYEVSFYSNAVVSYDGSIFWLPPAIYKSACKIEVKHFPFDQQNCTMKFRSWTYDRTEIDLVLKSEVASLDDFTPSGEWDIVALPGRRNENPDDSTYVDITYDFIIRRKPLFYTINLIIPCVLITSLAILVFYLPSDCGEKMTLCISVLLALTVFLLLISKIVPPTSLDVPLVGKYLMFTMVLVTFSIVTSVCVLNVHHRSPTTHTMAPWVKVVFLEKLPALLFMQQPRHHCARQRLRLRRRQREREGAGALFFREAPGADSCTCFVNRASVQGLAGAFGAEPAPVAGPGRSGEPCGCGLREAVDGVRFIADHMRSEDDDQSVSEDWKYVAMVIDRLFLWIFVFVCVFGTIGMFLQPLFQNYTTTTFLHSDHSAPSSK
Procedure: as §1, §2, §3

Sequence of α3β4 nAChR (P32297 32-505): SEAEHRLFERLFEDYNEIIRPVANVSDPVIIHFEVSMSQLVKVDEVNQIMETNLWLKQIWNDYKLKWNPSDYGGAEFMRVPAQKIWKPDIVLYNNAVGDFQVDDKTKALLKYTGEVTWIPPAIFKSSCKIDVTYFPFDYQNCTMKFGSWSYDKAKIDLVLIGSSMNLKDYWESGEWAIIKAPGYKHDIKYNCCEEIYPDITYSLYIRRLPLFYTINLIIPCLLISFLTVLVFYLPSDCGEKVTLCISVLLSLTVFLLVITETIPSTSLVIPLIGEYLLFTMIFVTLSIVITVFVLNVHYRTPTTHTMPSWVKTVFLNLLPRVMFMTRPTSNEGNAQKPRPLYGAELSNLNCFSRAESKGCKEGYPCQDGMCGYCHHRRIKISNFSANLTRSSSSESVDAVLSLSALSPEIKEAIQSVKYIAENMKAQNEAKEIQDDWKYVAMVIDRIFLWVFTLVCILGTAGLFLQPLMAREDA
Sequence of α3β4 nAChR (P30926 22-498): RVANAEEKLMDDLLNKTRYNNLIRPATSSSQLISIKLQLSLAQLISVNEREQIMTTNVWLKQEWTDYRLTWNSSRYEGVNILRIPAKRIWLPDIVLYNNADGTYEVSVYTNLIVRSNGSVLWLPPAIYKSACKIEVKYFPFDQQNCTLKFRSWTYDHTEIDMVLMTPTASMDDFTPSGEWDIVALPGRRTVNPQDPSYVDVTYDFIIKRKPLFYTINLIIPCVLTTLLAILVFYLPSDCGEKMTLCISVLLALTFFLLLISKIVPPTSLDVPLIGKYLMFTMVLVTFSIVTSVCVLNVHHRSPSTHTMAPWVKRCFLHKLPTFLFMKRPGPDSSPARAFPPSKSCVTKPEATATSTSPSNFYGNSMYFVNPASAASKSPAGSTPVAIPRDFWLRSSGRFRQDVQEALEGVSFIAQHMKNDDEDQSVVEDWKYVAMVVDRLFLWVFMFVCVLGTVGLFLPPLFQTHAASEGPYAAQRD
Sequence of α7 nAChR (P36544 23-502): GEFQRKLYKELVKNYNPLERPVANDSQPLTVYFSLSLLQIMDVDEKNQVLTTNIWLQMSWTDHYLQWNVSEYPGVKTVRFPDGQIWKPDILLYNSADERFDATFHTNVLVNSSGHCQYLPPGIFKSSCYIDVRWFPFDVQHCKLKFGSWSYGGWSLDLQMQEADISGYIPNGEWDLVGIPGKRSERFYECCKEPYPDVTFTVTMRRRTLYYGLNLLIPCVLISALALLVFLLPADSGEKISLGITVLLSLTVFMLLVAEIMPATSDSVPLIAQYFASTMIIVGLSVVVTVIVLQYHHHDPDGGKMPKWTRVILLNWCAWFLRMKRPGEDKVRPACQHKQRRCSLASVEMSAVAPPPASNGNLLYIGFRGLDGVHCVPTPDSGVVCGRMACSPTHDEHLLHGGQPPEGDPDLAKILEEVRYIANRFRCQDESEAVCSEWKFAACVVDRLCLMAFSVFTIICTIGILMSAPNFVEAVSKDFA

For `CN1CCC[C@H]1c1cccnc1` [Nicotine, (-)-Nicotine], the EC50 ([1]; hippocampal synaptosomes) is given as 4220 nM and the plasma concentration [2] is given as 5 to 6 µM.
For `C1=CCC(c2cccnc2)NC1` (racemic) [Anatabine, (±)-Anatabine], the “increase in norepinephrine release” value ([1]; at the higher doses) was about 20% and the IC50 [3] was 960 ± 200 nM.
In the case of `CN1C(=O)CC[C@H]1c1cccnc1` [Cotinine, (-)-cotinine], the “binding for α7 nAChR” value [4] is reported as “undetectable”, the “binding for α3β4 nAChR” value [3] is reported as “undetectable” and the “binding for α4β2 nAChR” value [5] is reported as “barely detectable”.
